Key:
[1] = test system: SNU-16 subcutaneous xenograft; assay: Antitumor effect in SNU-16 subcutaneous xenograft model in mice; assay type: in vivo; conditions: nude mice, tumor volume on last day
Description: Human stomach cancer cell line SNU-16, which had been cultured in an RPMI-1640 medium containing 10% FBS, and penicillin/streptomycin, were adjusted to a concentration of 1×10^8 cells/mL with Hanks' Balanced Salt Solution (GIBCO #24020) to prepare a cell suspension, and the suspension was mixed with MATRIGEL (BD Biosciences, Cat#354234) in a ratio of 1:1 to prepare a cell suspension in a concentration of 5×10^7 cells/mil. The cell suspension was inoculated in a volume of 100 μL into a subcutaneous part of a right flank of nude mice, 6 to 7 weeks of ages (BALB/cAJcl-nu/nu, female, Clea Japan Inc.). Seven days after cell inoculation, the shortest diameter and the longest diameter of a tumor in each mouse were measured by using an electronic digital caliper (Digimatic™ caliper, Mitutoyo Corporation), so as to calculate the volume of the tumor in accordance with the following calculation formula: Tumor volume (mm^3)=Longest diameter (mm)×Shortest diameter (mm)×Shortest diameter (mm)/2
On the basis of the volumes of tumors obtained on the first day of administration, the nude mice were grouped such that averages of the tumor volumes were substantially equal among the groups. Each test substance was dissolved in DMSO, Tween 80 was added thereto to prepare a solution in a 10-fold concentration and the thus prepared solution was stored at the freezer before use. Immediately before the administration, the stock solution was diluted with a 5% glucose solution to obtain a final administration solution (in which a ratio in % among DMSO, Tween 80 and the 5% glucose solution was 3.5:6.5:90). Each evaluation sample was orally administered to test substance administration group at a volume of 20 mL/Kg once a day continuously for 11 days, and in a control group, an administration solvent was orally administered under the same conditions. Incidentally, the experiment was conducted on groups each consisting of 5 mice.
With respect to each of the control group and test substance administration group, a ratio of the weight measured on the final day to the weight measured on the first day (relative body weight: RBW) was calculated. If a ratio of the RBW of the test substance administration group/the RBW of the control group is 0.9 or more, the corresponding test substance administration group was defined as a well-tolerated. In the test substance administration group thus defined as well-tolerated, a ratio of the tumor volume of the test substance-dosing group to the tumor volume of the control group obtained on the last day (T/C) (%) was calculated, and shown in Table 3.

[2] = test system: human stomach cancer cell line SNU-16; assay: cells; conditions: SNU-16, 72 h, read-out: SNU-16 (IC50 (nM))
Description: Then, 10 μL of Cell Counting Kit-8 (Dojindo Laboratories, CK04) was added to each well, and the resultant was incubated for 1 to 2 hours in a 5% CO2 incubator (37° C.) to cause a color reaction. The absorbance value was measured with ENVISION™ (PerkinElmer Co., Ltd.) at 450 nm. Absorbance value of the wells without adding the test substance was defined as 100% and the absorbance value of the wells containing no cells was defined as 0%. Then, an absorbance ratio in the presence of the test substance was calculated.

CNC(=O)n1ccc2cc(Oc3ccnc(NC(=O)c4ccc(C5CCN(CCO)CC5)cc4)c3)c(OCCOC)cc21 [Compound (I), 5-({2-[({4-[1-(2-hydroxyethyl)piperidin-4-yl]phenyl}carbonyl)amino]pyridin-4-yl}oxy)-6-(2-methoxyethoxy)-N-methyl-1H-indole-1-carboxamide]
T/C (%) ([1]; 6.25 mg/kg orally once a day for 11 days): 49%
T/C (%) ([1]; 12.5 mg/kg orally once a day for 11 days): 26%
T/C (%) ([1]; 25 mg/kg orally once a day for 11 days): 16%
T/C (%) ([1]; 50 mg/kg orally once a day for 11 days): 7%
IC50 [2]: 4.2 nM
